The values below come from patent publication US9814732B2, “Ulipristal acetate for prevention and treatment of breast tumors” (LABORATOIRE HRA-PHARMA, priority 2012, dated 2017).

Data set [1] relates to HBE cells. The data set is described as follows: Apoptosis, sub-G1 quantification by flow cytometry in HBE cells. Type of data set: cell-based, human. To be noted: 96 h. The method, then:
(§1) After seeding, cells were cultured for 24 h in serum and phenol red free medium. Then treatments were carried out in a phenol red free medium containing 5% dextran-charcoal stripped serum. Cells were treated with P or DEX (100 nM), alone or in combination with UPA, RU (1 nM to 1 μM) or CDB-3877 (100 nM). Control cells were treated with ethanol, at […] 1:1000 final ethanol concentration alone as vehicle or E2 (10 nM).
After 96 h or 48 h of hormonal treatment, respectively, for HBE or MCF-7 and T-47D cells, cells were washed in PBS, matrix dissociated with accutase enzyme (PAA laboratory, Les Mureaux, France), and centrifuged 5 minutes at 1350 rpm. Cells were fixed and frozen at −20° C. in 70% ethanol. Before analysis, cells were washed in PBS and stained with 10 μg/ml propidium iodide in PBS (containing 0.835 U/ml RNase A) (Sigma, St Quentin Fallavier, France). For each sample at least 10 000 cells were counted in a BD LSR II flow cytometer (BD Biosciences, Le Pont de Claix, France). After gating out doublets and debris, cycle distribution was analyzed using the ModFit LT software (Verity Software House, USA).

For data set [2], the system named is GR target genes (IEX-1, G0S8, cyclin A, BCL2). Put plainly: qRT-PCR mRNA expression of GR target genes in MCF-7 cells. In kind it is cell-based, human. The method, then:
as §1
(§2) Total RNA was extracted using TriZOL Reagent (Invitrogen, Cergy-Pontoise, France).
(§3) 2 μg of total RNA was subjected to reverse transcription (RT) using random primers for 1 h at 37° C. 2 μl of RT product was diluted (1:10) and subjected to quantitative PCR using sequence specific primers (300 nM) and Brillant SYBR GREEN QPCR master mix (Fermentas, Saint-Rémy-lès-Chevreuse, France) on an Mx3000P apparatus (Agilent Technologies, Massy, France). Conditions were 1 cycle at 95° C. for 10 min followed by 40 cycles at 95° C. for 30 sec, 60° C. for 1 min and 72° C. for 30 sec. Gene expression values were normalized to the housekeeping gene 36B4. Time of steroid treatment was chosen to get the optimal stimulation for a given gene. ALPL and G0S8 mRNA were analyzed after 6 h of treatment. IEX-1, FASN, and BCL2 were analyzed after 24 h of treatment. Cyclin A mRNA was analyzed after 24 h for GR responses or 48 h for PR responses.
For orientation: Quantitative PCR measures a nucleic acid by following its amplification.

Data set [3] relates to normal human breast tissues xenografts. Put plainly: Ki67 mitotic index in normal human breast tissue xenografted in athymic mice. The settings on record: E2+P+UPA vs E2 and E2+P groups, lobules and ducts, UPA 20 mg pellet, 28 days. In kind it is in vivo. The text has this:
Breast tissues samples were obtained from 6 women (aged 29-42 years) undergoing surgery for reduction mammoplasty, with their informed consent according to the French law on clinical experimentation.
(§4) Four weeks old ovariectomized female NMRInu/nu 20 athymic mice were purchased from Janvier laboratory (Le Genest Saint Isle, France). Breast tissues samples were obtained from 6 women (aged 29-42 years). Human mammary gland tissue was cut into 2×2×2 mm fragments and 4 fragments were then subcutaneously xenografted onto the back of 4 mice per group. Four treatment groups were performed: control, E2, E2+P and E2+P+UPA. Treatments were administered by grafting steroid pellets onto the neck of each mouse. The experimental conditions were initially determined by using a dose range of hormones mixed with cholesterol into the pellets. Blood sample assays were performed after 2 weeks and 4 weeks of treatment to measure plasmatic hormonal concentrations. Finally, the dose of 0.3 mg for E2 and 20 mg for P and UPA were used, as it provides the expected blood concentrations. For the control groups, pellets containing only cholesterol were used. To reproduce menstrual cycle conditions, mice were grafted on the first day of experiment with cholesterol, E2 and/or UPA containing pellets and on the fourteen day with cholesterol or progesterone containing pellets in control and E2 groups, or in E+P and E2+P+UPA groups, respectively. Twenty eight days after the start of experiment, mice were sacrificed. Blood was collected for each mouse, and serum was frozen at −20° C. until hormone concentrations
Mitotic index was calculated using the Ki67 antibody, and was determined for each breast tissue grafted into mice. Immunohistochemical analyses were performed using the BOND-MAX workstation (Leica, Nanterre, France). Paraffin sections of breast tissue xenografts were de-waxed and rehydrated before antigen retrieval using citrate retrieval solution (pH 6.0) for Ki67 antibody or EDTA retrieval solution (pH 9.0) for PR and ERalpha antibodies, for 30 min. […]

A short description of data set [4]: Hormone concentrations in serum of pellet-treated athymic mice. In kind it is in vivo. The settings on record: female, NMRI nu/nu athymic, mouse, other: steroid pellets grafted onto the neck, 20 mg pellet (P from day 14, UPA from day 1), day 28, read-out: concentration in mice serum (mean±SEM). The method, then:
as §4
Estradiol was measured by radioimmunoassay using Clinical Assays Estradiol-2 (Sorin Biomedica Diagnostics SpA, Saluggia, Italia). Progesterone levels were evaluated by UPLC-MSMS using Acquity UPLC and Quattro Premier XE (Waters, Milford Mass., USA).
UPA concentrations were measured using LC-MS/MS technique by MPI Research (State College, Pa., USA).

Data set [5] has as its system PR target genes (FASN, cyclin A, BCL2, ALPL). Put plainly: qRT-PCR mRNA expression of PR target genes in T-47D cells. In kind it is cell-based, human. The method, then:
as §1, §2, §3

On to `CC(=O)O[C@]1(C(C)=O)CCC2C3CCC4=CC(=O)CCC4=C3[C@@H](c3ccc(N(C)C)cc3)C[C@@]21C` (stereo partly drawn) [UPA, 17[…]-acetoxy-11[…]-[4-N,N-dimethylamino-phenyl)-19-norpregna-4,9-diene-3,20-dione], for which the “cell apoptosis (sub-G1 percentage), compound alone” value in data set [1] (100 nM) is “had no apoptotic or survival properties by itself”. Also, the “effect of UPA on DEX-mediated anti-apoptotic effect” value in data set [1] (DEX 100 nM + UPA 100 nM) is listed as “both hormones activities were reversed”. Besides, the “effect of UPA on P-mediated apoptosis” value in data set [1] (P 100 nM + UPA 100 nM) is “both hormones activities were reversed”. In addition, the “G0S8 mRNA expression” value in data set [2] (DEX and/or UPA 100 nM, 6 h, p<0.001) was “anti-glucocorticoid activity was strong”. In data set [2] (DEX and/or UPA 100 nM, 24 h), the “BCL2 mRNA expression (GR response)” value is “partially antagonized this effect”, the “IEX-1 mRNA expression” value is on record as “did not antagonize this response” and the “cyclin A mRNA expression (GR response)” value is “partially inhibited DEX effect on cyclin A mRNA expression”. In addition, the “glucocorticoid agonist activity on GR target genes” value in data set [2] (UPA 100 nM alone) is reported as “did not display any glucocorticoid agonist activity”. In addition, the “proliferation rate (Ki67) of normal epithelial breast cells” value in data set [3] is on record as “does not significantly influence the proliferation rate”. In addition, the concentration at 28 days in data set [4] turned out to be 63.5 ± 10.5 ng/mL. Also, in data set [5] (P and/or UPA 100 nM, 6 h), the “ALPL mRNA expression” value is reported as “totally inhibited the strong P mediated induction of ALPL transcript”. Moreover, the “FASN mRNA expression” value in data set [5] (P and/or UPA 100 nM, 24 h) was “able to prevent P induction of FASN mRNA expression”. For the same compound, the “BCL2 mRNA expression (PR response)” value in data set [5] (P and/or UPA 100 nM, 24 h, p<0.01) is “antagonized the P inhibitory effect on this transcript”. Besides, the “cyclin A mRNA expression (PR response)” value in data set [5] (P and/or UPA 100 nM, 48 h) is given as “reversed P-induced cyclin A mRNA down-regulation”. Also, the “PR agonist activity on PR target genes” value in data set [5] (UPA 100 nM alone) is “did not display any PR agonist activity”.
